Results: PMC4770715, “LIM kinase inhibitors disrupt mitotic microtubule organization and impair tumor cell proliferation” (Oncotarget, 2015)

Assays:
Test in all cases: biochemical
Parameters in all cases: KINOMEscan active-site competition binding, percent of control (100 = no competition)
Conditions in all cases: competition binding, percent control
[1] = target: PRKCI (Homo sapiens, UniProt P41743)
[2] = target: CDK5 (Homo sapiens, UniProt Q00535)
[3] = target: CDKL5 (Homo sapiens, UniProt O76039)
[4] = target: PIK3CA(Q546K) (Homo sapiens, UniProt P42336, Q546K)
[5] = target: PIK3CA(M1043I) (Homo sapiens, UniProt P42336, M1043I)
[6] = target: CLK3 (Homo sapiens, UniProt P49761)
[7] = target: CSNK1D (Homo sapiens, UniProt P48730)
[8] = target: EPHA1 (Homo sapiens, UniProt P21709)
[9] = target: T1, DRAK2 (Homo sapiens, UniProt O94768)
T1 construct: gene STK17B

[10] = target: T2, MEK1 (Homo sapiens, UniProt Q02750)
T2 construct: gene MAP2K1

[11] = target: TTK (Homo sapiens, UniProt P33981)
[12] = target: T3, MEK3 (Homo sapiens, UniProt P46734)
T3 construct: gene MAP2K3

[13] = target: CDKL3 (Homo sapiens, UniProt Q8IVW4)
[14] = target: TYRO3 (Homo sapiens, UniProt Q06418)
[15] = target: ANKK1 (Homo sapiens, UniProt Q8NFD2)
[16] = target: T4, ABL1(F317I)-nonphosphorylated (Homo sapiens, UniProt P00519, F317I)
T4 construct: nonphosphorylated

[17] = target: MAST1 (Homo sapiens, UniProt Q9Y2H9)
[18] = target: TNK2 (Homo sapiens, UniProt Q07912)
[19] = target: MAP3K2 (Homo sapiens, UniProt Q9Y2U5)
[20] = target: TGFBR2 (Homo sapiens, UniProt P37173)
[21] = target: EGFR(L858R,T790M) (Homo sapiens, UniProt P00533, L858R/T790M)
[22] = target: GAK (Homo sapiens, UniProt O14976)
[23] = target: EPHA3 (Homo sapiens, UniProt P29320)
Chain of EPHA3 (P29320 whole entry): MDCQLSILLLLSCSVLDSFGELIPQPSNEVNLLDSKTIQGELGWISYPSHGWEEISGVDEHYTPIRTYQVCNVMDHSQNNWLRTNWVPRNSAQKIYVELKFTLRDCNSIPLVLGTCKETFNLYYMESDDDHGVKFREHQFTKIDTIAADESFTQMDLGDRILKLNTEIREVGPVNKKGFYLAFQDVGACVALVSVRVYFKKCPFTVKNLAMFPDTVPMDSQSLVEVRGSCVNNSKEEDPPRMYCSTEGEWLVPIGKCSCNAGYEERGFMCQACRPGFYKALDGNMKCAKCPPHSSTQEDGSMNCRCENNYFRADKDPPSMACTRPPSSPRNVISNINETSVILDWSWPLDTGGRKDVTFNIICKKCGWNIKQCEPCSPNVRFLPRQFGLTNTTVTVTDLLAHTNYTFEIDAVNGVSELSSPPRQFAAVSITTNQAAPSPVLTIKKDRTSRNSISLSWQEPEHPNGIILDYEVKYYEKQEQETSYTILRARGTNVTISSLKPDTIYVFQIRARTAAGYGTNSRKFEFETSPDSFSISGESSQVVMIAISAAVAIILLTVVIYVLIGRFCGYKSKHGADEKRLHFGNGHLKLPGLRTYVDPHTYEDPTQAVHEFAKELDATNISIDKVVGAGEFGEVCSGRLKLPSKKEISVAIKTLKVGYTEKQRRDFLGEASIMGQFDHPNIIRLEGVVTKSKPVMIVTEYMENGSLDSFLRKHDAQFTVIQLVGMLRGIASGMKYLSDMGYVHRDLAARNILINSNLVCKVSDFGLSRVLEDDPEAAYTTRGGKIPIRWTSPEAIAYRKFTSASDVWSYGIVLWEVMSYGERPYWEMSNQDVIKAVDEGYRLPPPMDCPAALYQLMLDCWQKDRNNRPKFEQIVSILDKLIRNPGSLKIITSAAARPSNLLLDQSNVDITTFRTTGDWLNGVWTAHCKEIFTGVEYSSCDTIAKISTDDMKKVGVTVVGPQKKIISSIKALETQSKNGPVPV

Chain of EPHA1 (P21709 whole entry): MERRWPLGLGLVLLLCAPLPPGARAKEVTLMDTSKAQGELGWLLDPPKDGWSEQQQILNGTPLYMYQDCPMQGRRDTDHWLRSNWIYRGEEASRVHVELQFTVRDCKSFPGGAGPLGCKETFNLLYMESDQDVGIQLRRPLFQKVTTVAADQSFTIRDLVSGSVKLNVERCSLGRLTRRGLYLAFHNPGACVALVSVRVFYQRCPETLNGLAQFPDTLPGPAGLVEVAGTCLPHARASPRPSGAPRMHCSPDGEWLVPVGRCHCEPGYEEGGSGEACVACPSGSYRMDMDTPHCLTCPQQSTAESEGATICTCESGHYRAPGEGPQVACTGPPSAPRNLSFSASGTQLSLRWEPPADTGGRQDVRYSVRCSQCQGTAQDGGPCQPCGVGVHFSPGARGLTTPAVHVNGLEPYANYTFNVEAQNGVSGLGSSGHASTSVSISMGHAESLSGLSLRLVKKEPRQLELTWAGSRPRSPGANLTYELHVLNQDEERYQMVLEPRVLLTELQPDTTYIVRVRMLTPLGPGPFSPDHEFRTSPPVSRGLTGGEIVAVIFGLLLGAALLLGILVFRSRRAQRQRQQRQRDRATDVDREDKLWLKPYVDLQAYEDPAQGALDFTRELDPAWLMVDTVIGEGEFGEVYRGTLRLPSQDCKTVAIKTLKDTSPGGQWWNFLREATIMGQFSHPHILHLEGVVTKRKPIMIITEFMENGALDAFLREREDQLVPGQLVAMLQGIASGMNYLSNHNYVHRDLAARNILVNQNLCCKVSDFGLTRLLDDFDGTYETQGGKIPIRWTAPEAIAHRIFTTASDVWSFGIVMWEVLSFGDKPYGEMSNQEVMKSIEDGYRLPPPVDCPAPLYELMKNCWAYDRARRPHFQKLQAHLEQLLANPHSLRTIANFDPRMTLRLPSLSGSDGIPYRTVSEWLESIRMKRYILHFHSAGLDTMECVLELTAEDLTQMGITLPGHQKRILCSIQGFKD
Chain of CDK5 (Q00535 whole entry): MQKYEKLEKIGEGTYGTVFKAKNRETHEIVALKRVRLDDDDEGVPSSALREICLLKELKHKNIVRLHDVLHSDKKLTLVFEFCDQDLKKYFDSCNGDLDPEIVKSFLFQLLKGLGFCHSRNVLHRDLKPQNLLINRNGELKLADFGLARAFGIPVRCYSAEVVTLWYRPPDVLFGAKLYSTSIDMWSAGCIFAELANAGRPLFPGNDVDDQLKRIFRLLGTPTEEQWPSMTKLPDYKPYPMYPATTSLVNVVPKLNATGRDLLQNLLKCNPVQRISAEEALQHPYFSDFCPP
T1 sequence (O94768 whole entry): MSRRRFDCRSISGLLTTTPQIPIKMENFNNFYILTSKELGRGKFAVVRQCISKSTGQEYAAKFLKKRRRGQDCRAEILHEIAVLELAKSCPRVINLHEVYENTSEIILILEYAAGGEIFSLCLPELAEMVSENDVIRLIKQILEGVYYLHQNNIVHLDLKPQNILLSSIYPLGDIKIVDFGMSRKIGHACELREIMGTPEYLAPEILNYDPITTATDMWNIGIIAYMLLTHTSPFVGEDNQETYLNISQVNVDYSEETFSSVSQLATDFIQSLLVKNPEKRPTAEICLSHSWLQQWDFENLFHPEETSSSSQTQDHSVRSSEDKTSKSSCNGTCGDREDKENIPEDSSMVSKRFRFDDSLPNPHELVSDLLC
T4 sequence (P00519 whole entry F317I): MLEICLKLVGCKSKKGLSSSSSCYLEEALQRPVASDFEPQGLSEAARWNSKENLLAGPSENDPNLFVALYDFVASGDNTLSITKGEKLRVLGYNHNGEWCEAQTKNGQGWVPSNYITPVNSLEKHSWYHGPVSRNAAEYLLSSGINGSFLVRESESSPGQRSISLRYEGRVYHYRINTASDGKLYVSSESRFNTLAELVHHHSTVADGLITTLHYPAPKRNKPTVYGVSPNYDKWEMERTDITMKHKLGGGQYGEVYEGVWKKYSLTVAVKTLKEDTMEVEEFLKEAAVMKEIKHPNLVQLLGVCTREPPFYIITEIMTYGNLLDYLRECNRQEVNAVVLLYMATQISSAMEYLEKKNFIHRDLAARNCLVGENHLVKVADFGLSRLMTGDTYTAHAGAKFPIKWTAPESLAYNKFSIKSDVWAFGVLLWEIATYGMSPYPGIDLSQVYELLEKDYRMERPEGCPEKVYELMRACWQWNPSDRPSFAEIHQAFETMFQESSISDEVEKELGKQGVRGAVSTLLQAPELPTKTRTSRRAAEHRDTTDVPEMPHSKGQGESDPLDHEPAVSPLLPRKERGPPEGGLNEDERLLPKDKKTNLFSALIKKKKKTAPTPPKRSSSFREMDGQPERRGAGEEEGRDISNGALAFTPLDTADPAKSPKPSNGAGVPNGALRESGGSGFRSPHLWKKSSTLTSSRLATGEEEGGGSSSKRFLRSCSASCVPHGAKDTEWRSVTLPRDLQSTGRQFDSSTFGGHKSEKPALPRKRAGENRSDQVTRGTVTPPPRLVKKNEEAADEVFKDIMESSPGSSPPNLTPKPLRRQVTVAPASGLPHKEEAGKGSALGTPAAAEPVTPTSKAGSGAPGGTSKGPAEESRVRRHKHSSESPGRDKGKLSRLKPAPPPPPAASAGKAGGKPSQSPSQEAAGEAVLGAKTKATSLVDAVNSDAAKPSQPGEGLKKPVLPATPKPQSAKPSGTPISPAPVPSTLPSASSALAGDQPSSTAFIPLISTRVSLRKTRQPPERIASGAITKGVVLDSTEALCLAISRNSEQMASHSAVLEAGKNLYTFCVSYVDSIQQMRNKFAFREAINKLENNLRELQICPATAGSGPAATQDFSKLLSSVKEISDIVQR
Chain of CLK3 (P49761 whole entry): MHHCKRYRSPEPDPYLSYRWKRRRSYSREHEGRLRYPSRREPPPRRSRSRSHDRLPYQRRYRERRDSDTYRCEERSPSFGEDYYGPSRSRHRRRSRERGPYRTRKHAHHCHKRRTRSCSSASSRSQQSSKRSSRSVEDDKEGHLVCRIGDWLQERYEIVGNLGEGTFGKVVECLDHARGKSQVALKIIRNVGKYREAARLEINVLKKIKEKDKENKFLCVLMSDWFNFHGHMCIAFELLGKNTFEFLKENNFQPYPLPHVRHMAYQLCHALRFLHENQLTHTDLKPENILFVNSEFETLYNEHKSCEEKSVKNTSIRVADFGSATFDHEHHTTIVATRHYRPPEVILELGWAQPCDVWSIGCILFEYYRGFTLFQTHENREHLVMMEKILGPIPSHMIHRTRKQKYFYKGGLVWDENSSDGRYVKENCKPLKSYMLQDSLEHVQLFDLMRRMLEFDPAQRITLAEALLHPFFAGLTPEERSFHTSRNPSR
Chain of CSNK1D (P48730 whole entry): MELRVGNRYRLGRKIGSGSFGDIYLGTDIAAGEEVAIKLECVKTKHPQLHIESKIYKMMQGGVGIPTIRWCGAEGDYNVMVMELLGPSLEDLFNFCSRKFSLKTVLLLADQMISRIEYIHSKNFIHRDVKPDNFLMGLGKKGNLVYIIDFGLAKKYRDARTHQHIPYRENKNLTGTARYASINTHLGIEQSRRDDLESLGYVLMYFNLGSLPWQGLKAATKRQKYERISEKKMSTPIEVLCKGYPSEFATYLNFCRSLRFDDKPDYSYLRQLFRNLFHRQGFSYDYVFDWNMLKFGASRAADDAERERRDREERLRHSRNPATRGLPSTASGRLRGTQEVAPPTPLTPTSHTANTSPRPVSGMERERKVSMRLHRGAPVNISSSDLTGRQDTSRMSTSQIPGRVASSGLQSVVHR
T3 sequence (P46734 whole entry): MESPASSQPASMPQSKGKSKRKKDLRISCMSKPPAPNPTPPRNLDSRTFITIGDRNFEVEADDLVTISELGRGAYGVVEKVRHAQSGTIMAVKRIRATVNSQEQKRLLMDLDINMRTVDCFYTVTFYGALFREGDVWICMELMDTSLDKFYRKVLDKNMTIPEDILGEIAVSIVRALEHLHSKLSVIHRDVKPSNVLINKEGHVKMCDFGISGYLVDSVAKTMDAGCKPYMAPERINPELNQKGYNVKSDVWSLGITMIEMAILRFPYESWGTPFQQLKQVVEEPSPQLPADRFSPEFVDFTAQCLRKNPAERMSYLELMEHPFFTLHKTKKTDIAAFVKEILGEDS

| Compound | remaining binding at 10 µM [1] [%] | remaining binding at 10 µM [2] [%] | remaining binding at 10 µM [3] [%] | remaining binding at 10 µM [4] [%] | remaining binding at 10 µM [5] [%] | remaining binding at 10 µM [6] [%] | remaining binding at 10 µM [7] [%] | remaining binding at 10 µM [8] [%] | remaining binding at 10 µM [9] [%] | remaining binding at 10 µM [10] [%] | remaining binding at 10 µM [11] [%] | remaining binding at 10 µM [12] [%] | remaining binding at 10 µM [13] [%] | remaining binding at 10 µM [14] [%] | remaining binding at 10 µM [15] [%] | remaining binding at 10 µM [16] [%] | remaining binding at 10 µM [17] [%] | remaining binding at 10 µM [18] [%] | remaining binding at 10 µM [19] [%] | remaining binding at 10 µM [20] [%] | other results |
| --- | --- | --- | --- | --- | --- | --- | --- | --- | --- | --- | --- | --- | --- | --- | --- | --- | --- | --- | --- | --- | --- |
| COc1ccc(-c2cnccc2-c2cnc(NC(=O)C(C)C)s2)c(C(F)(F)F)c1 [CRT0105446, N-{5-[3-(4-Methoxy-2-trifluoromethyl-phenyl)-pyridin-4-yl]-hiazol-2-yl}-isobutyramide] | 81 | 60 | 100 | 100 | 100 | 49 | 27 | 100 | 100 | 87 | 32 | 83 | 26 | 100 | 99 | 100 | 68 | 91 | 82 | 94 | remaining binding at 10 µM [21]: 91%; remaining binding at 10 µM [22]: 92%; remaining binding at 10 µM [23]: 87% |
| Cc1ccc(-c2cnccc2-c2cnc(Nc3ccc(O)cc3)s2)c(Cl)c1 [CRT0105950, 4-{5-[3-(2-Chloro-4-methyl-phenyl)-pyridin-4-yl]-thiazol-2-ylamino}-phenol] | 79 | 12 | 99 | 100 | 100 | 22 | 6.1 | 74 | 100 | 51 | 1.7 | 27 | 23 | 51 | 69 | 93 | 84 | 25 | 15 | 18 | remaining binding at 10 µM [21]: 89%; remaining binding at 10 µM [22]: 22%; remaining binding at 10 µM [23]: 71% |
